This note sets out measurements from patent US12509437B2, “Substituted thiophene carboxamides and derivatives thereof as microbicides” (Bayer Aktiengesellschaft, priority 2019, dated 2025).

A short description of data set [1]: LogP by HPLC on reversed phase columns (EEC directive 79/831 Annex V.A8). As to conditions: reversed phase HPLC columns. It counts as physicochemical. An outline of the steps: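 Reversed-phase HPLC, calibrated with straight-chain alkan-2-ones (C3–C16) of known LogP; values by linear interpolation of retention times between successive alkanones. Multiple values from one method are joined by "+"; lambda-max taken from 200–400 nm UV spectra at chromatographic peaks.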

The subject of data set [2] is Xanthomonas campestris pv. campestris. The data set is described as follows: In vivo preventive test on Xanthomonas campestris pv. campestris (black rot on cabbage). As to conditions: Xanthomonas campestris, sprayed 72 hours before inoculation, evaluated 8 or 10 days after inoculation, read-out: efficacy; for pest or weed control at 31 ppm: 31 ppm of active ingredient; for pest or weed control at 125 ppm: 125 ppm of active ingredient; for pest or weed control at 500 ppm: 500 ppm of active ingredient. In short, it runs like this:
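Young cabbage plants sprayed preventively with compound formulated in acetone/DMSO/Tween and diluted in water, then inoculated 72 h later with a bacterial spray. Kept at 27° C, 95% relative humidity; disease scored after 8 or 10 days as % efficacy versus solvent-treated controls (0% = control, 100% = no disease).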

Data set [3] deals with Colletotrichum lindemuthianum. The data set is described as follows: In vivo preventive test on Colletotrichum lindemuthianum (Anthracnose on bean). The note with it: Colletotrichum lindemuthianum, 144 h, sprayed 72 hours before inoculation, evaluated 6 days after inoculation, read-out: efficacy; for pest or weed control at 500 ppm: 500 ppm of active ingredient; for pest or weed control at 31 ppm: 31 ppm of active ingredient; for pest or weed control at 125 ppm: 125 ppm of active ingredient. In short, it runs like this:
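Young bean plants were sprayed with compound in acetone/DMSO/Tween diluted in water, then inoculated 72 h later with C. lindemuthianum spores. Incubation was 24 h at 20 °C/100% RH, then 5 days at 20 °C/90% RH. Efficacy scored 6 days post-inoculation: 0% equals solvent-treated control, 100% means no disease.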

[4] abbreviates: preparation examples, method not indicated, read-out: Log P.

Read-outs that look alike come from different tables or passages of the source. A value given as a limit tells only on which side of the number the result lay.

As to `COC(=O)C(NC(=O)c1sc(Br)c(Br)c1C)C1CC1` (centres unmarked) [I.032], the chromatographic logP in data set [1] (method [a]) is 3.41. For the same compound, in data set [2], the pest or weed control at 31 ppm lay in the range of 90 to 100%, the pest or weed control at 125 ppm is 90 to 100% and the pest or weed control at 500 ppm lay within 90 to 100%. The pest or weed control at 500 ppm in data set [3] is 70 to 79%.

In data set [1] (method [a]), `CCOC(=O)C1(NC(=O)c2sc(Cl)c(Cl)c2C)CCC1` [I.047] displayed a chromatographic logP of 3.67. Moreover, the pest or weed control at 125 ppm in data set [2] was 80 to 89%. Further, in data set [3], the pest or weed control at 31 ppm was 90 to 100%, the pest or weed control at 125 ppm is 90 to 100% and the pest or weed control at 500 ppm is 90 to 100%.

`Cc1c(C(=S)NC2(C(=O)O)CC2)sc(Cl)c1Cl` [I.060]: the chromatographic logP in data set [1] (method [a]) is 2.84. Moreover, in data set [2], the pest or weed control at 125 ppm was 70 to 79% and the pest or weed control at 500 ppm fell in the range of 80 to 89%. In addition, the pest or weed control at 125 ppm in data set [3] is 80 to 89%.

The compound `CCOC(=O)C(C#N)NC(=O)c1sc(Br)c(Br)c1C` (centres unmarked) [I.077] displayed a chromatographic logP in data set [1] (method [a]) of 3.22. In data set [2], the pest or weed control at 31 ppm is 80 to 89% and the pest or weed control at 125 ppm lay in the range of 80 to 89%. In data set [3], the pest or weed control at 31 ppm was in the range of 80 to 89%, the pest or weed control at 125 ppm fell in the range of 80 to 89% and the pest or weed control at 500 ppm lay in the range of 90 to 100%.

In the case of `Cc1c(C(=O)NC(C(=O)O)C2CC2)sc(Br)c1Br` (centres unmarked) [I.080, cyclopropyl{[(4,5-dibromo-3-methyl-2-thienyl)carbonyl]amino}acetic acid], the chromatographic logP in data set [1] (setting [4]) turned out to be 2.67. Also, in data set [2], the pest or weed control at 31 ppm was 70 to 79%, the pest or weed control at 125 ppm is 80 to 89% and the pest or weed control at 500 ppm lay in the range of 90 to 100%. Moreover, the pest or weed control at 500 ppm in data set [3] lay in the range of 70 to 79%.

In the case of `COC(=O)C(NC(=O)c1sc(Cl)c(Cl)c1C)C1CC1` (centres unmarked) [I.081, methyl cyclopropyl{[(4,5-dichloro-3-methyl-2-thienyl)carbonyl]amino}acetate], the chromatographic logP in data set [1] (setting [4]) was 3.31. In addition, in data set [2], the pest or weed control at 31 ppm fell in the range of 80 to 89% and the pest or weed control at 125 ppm was 90 to 100%. For the same compound, the pest or weed control at 500 ppm in data set [3] is 80 to 89%.

Compound `Cc1c(C(=O)NC(C(=O)O)C2CC2)sc(Cl)c1Cl` (centres unmarked) [I.095] had a chromatographic logP in data set [1] (method [a]) of 2.59. Further, in data set [2], the pest or weed control at 31 ppm fell in the range of 70 to 79%, the pest or weed control at 125 ppm lay within 90 to 100% and the pest or weed control at 500 ppm lay in the range of 90 to 100%. Besides, the pest or weed control at 125 ppm in data set [3] lay within 70 to 79%.

In turn, `COC(=O)CC[C@H](NC(=O)c1sc(Cl)c(Cl)c1C)C(=O)OC` [I.122] came in with a chromatographic logP in data set [1] (method [a]) of 3.08. Also, in data set [2], the pest or weed control at 31 ppm was in the range of 90 to 100%, the pest or weed control at 125 ppm lay in the range of 90 to 100% and the pest or weed control at 500 ppm was in the range of 90 to 100%. Further, in data set [3], the pest or weed control at 31 ppm was not below 70%, the pest or weed control at 125 ppm was in the range of 70 to 79% and the pest or weed control at 500 ppm lay within 80 to 89%.
